Experimental findings from ChEMBL document CHEMBL1909046, “DrugMatrix in vitro pharmacology data” are described below.

For test [1], the target named is T1, Type-2 angiotensin II receptor (Homo sapiens, UniProt P50052). Note: in other assays of this panel Not Active means under 50% inhibition at 10 µM.
T1 sequence (P50052 whole entry): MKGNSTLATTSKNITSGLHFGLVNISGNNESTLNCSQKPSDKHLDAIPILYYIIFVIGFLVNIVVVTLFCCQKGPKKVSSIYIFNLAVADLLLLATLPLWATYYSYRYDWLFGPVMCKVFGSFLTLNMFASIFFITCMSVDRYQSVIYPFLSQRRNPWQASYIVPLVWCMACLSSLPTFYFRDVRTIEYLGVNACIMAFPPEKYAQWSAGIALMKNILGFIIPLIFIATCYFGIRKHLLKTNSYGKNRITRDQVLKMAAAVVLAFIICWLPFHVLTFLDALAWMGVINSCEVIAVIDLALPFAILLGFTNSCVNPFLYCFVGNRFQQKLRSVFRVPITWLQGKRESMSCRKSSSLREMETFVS
It is filed as cell-based. To be noted: cho-k1.

Test [2] in a line: DRUGMATRIX: Sigma2 radioligand binding (ligand: [3H] Ifenprodil). It is filed as cell membranes, Rattus norvegicus, Wistar, Brain, Membrane. The settings on record: Not Active = under 50% inhibition at 10 µM.
The target of test [3] is T2, C-C chemokine receptor type 4 (Homo sapiens, UniProt P51679). Note: in other assays of this panel Not Active means under 50% inhibition at 10 µM.
T2 sequence (P51679 whole entry): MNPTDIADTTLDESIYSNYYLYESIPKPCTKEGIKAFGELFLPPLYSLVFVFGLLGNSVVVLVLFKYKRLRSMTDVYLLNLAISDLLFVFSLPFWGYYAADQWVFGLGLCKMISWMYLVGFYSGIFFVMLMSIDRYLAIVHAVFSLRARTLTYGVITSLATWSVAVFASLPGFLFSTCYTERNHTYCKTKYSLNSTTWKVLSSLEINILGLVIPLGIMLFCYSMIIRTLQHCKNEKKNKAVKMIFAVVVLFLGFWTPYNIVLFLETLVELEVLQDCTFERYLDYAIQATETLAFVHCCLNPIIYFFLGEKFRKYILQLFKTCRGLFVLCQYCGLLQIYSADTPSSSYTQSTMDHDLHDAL
It counts as cell membranes, Chem-1, Membrane.

Test [4] deals with Beta-2 adrenergic receptor (Homo sapiens, UniProt P07550). Briefly: DRUGMATRIX: Adrenergic beta2 radioligand binding (ligand: [3H] CGP-12177). It counts as cell membranes, CHO, Membrane. The settings on record: Not Active = under 50% inhibition at 10 µM.
Test [5] deals with C-C chemokine receptor type 2 (Homo sapiens, UniProt P41597). It is filed as cell membranes, CHO-K1, Membrane.
Sequence of C-C chemokine receptor type 2 (P41597 whole entry): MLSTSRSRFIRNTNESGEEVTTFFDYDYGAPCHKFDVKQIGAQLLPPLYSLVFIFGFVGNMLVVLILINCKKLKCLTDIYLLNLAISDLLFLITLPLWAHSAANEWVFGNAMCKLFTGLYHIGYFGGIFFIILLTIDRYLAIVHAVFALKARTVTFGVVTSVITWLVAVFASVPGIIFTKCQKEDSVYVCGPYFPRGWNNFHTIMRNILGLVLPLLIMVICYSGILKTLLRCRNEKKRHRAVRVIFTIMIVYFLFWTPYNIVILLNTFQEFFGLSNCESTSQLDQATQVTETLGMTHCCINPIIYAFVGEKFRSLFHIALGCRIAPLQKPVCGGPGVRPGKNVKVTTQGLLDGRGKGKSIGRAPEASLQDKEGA

Sequence of Beta-2 adrenergic receptor (P07550 whole entry): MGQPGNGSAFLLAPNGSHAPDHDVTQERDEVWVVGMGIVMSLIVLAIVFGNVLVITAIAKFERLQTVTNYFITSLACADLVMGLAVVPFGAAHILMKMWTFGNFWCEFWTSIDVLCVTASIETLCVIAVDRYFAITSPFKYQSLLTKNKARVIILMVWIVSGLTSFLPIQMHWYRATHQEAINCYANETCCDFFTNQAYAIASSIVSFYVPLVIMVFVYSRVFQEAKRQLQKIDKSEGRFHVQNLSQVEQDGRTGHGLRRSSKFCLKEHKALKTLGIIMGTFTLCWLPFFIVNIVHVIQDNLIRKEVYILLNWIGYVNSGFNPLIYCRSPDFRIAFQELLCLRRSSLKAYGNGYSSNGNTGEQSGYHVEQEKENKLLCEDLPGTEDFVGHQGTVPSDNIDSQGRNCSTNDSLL

For orientation: IC50 means the concentration at which inhibition is half-maximal. As usually defined, the Ki is the dissociation constant of the complex between target and ligand, obtained from inhibition or displacement. For the compound `C#C[C@]1(O)CC[C@H]2[C@@H]3[C@H](C)CC4=C(CCC(=O)C4)[C@H]3CC[C@@]21C` [TIBOLONE], the IC50 result in test [1], in test [2], in test [3] (chem-1), in test [4] (cho) and in test [5] (cho-k1) was “Not Active” each time. For the same compound, in test [2], the Ki entry is recorded as “Not Active”.

Consider `C[C@]12CCC(=O)C[C@@H]1CC[C@@H]1[C@@H]2CC[C@]2(C)[C@@H](O)CC[C@@H]12` [STANOLONE], for which the IC50 entry in test [1], in test [2], in test [3] (chem-1), in test [4] (cho) and in test [5] (cho-k1) was “Not Active” each time. Moreover, in test [2], the Ki entry is given as “Not Active”.

In the case of `CC(C)(C)NC[C@H](O)COc1cccc2c1CCCC2=O` [LEVOBUNOLOL], the IC50 result in test [1] is “Not Active”; in test [2] it was “Not Active”; in test [3] (chem-1) it was “Not Active”; in test [4] (read-out: IC50), 0.000793 µM; in test [5] (cho-k1) it was “Not Active”. Further, the Ki entry in test [2] was “Not Active”; in test [4] (read-out: Ki) it was 0.000546 µM.

Regarding `CCN1CCCC1CNC(=O)c1cc(S(N)(=O)=O)ccc1OC` (centres undefined) [SULPIRIDE], the IC50 result in test [1], in test [2], in test [3] (chem-1), in test [4] (cho) and in test [5] (cho-k1) was “Not Active” each time. Further, in test [2], the Ki entry was “Not Active”.

Regarding `CCN(CC)C(=S)SSC(=S)N(CC)CC`, the IC50 result in test [1] is “Not Active”; in test [2] (read-out: IC50), 75.6 µM; in test [3] (read-out: IC50), 8.4 µM; in test [4] (cho), “Not Active”; in test [5] (read-out: IC50) it was 2.47 µM. Also, the Ki in test [2] (read-out: Ki) was 46.5 µM; in test [3] (read-out: Ki) it was 4.4 µM; in test [5] (read-out: Ki) it was 0.954 µM.

As for `OC[C@@H](O)[C@@H](O)[C@H](O)[C@H](O)CO` [MANNITOL], the IC50 result in test [1], in test [2], in test [3] (chem-1), in test [4] (cho) and in test [5] (cho-k1) was “Not Active” each time. For the same compound, the Ki result in test [2] is given as “Not Active”.

Turning to `C[N+]1(C)[C@@H]2C[C@@H](OC(=O)[C@H](CO)c3ccccc3)C[C@H]1[C@@H]1O[C@@H]12.[Br-]` [METHSCOPOLAMINE BROMIDE], the IC50 result in test [1], in test [2], in test [3] (chem-1), in test [4] (cho) and in test [5] (cho-k1) was “Not Active” each time. Moreover, the Ki result in test [2] is listed as “Not Active”.

As for `CCN(CC)CCNC(=O)c1cc(Cl)c(N)cc1OC` [METOCLOPRAMIDE], the IC50 result in test [1], in test [2], in test [3] (chem-1), in test [4] (cho) and in test [5] (cho-k1) was “Not Active” each time. The Ki result in test [2] was “Not Active”.

Take `CC(=O)O[C@]1(C(C)=O)CC[C@H]2[C@@H]3C[C@H](C)C4=CC(=O)CC[C@]4(C)[C@H]3CC[C@@]21C` [MEDROXYPROGESTERONE ACETATE]: the IC50 entry in test [1], in test [2], in test [3] (chem-1), in test [4] (cho) and in test [5] (cho-k1) was “Not Active” throughout. Also, in test [2], the inhibition constant (Ki) entry is “Not Active”.

Regarding `Cc1ccnc(NS(=O)(=O)c2ccc(N)cc2)n1` [SULFAMERAZINE], the IC50 entry in test [1], in test [2], in test [3] (chem-1), in test [4] (cho) and in test [5] (cho-k1) was “Not Active” throughout. Also, the Ki result in test [2] is listed as “Not Active”.

Take `CNCCCC12CCC(c3ccccc31)c1ccccc12` [MAPROTILINE]: the IC50 result in test [1], in test [3] (chem-1), in test [4] (cho) and in test [5] (cho-k1) was “Not Active” in each case.

On to `CN(C)CCC=C1c2ccccc2COc2ccccc21` [DOXEPIN], for which the IC50 result in test [1], in test [3] (chem-1) and in test [5] (cho-k1) was “Not Active” each time.

Take `Cc1cc2c(s1)Nc1ccccc1N=C2N1CCN(C)CC1` [OLANZAPINE]: the IC50 entry in test [1], in test [3] (chem-1), in test [4] (cho) and in test [5] (cho-k1) was “Not Active” throughout.
